Drawing on US9181232B2, “Difluoro-hexahydro-cyclopentaoxazinyls and difluoro-hexahydro-benzooxazinyls as BACE1 inhibitors” (Hoffmann-La Roche Inc., priority 2012, dated 2015), this text covers IC50 for 6 compounds.

The structures appear in SMILES notation. pIC50: −log10 of the molar value. Some results are limits rather than exact numbers.

In one test the target is T1, BACE1 (Homo sapiens, UniProt P56817).
T1 construct: Human HEK293 cells which are stably transfected with a vector expressing a cDNA of the human APP wt gene (APP695); endogenous in cells; host or cells: HEK293 stably expressing human APP695 wt
T1 sequence (P56817 46-501): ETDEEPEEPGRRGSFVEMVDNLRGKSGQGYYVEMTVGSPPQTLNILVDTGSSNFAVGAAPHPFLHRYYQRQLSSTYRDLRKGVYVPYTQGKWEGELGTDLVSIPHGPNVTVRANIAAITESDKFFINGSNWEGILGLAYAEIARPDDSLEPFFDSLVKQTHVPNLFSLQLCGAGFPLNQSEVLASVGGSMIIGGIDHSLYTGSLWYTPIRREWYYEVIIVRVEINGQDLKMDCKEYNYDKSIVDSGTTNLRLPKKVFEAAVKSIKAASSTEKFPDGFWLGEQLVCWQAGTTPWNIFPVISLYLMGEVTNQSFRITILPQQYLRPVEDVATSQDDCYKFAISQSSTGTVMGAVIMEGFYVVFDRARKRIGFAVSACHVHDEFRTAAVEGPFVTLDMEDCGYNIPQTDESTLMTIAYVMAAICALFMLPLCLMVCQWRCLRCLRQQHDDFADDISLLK
The test is described as follows: Cellular Aβ-lowering assay (Aβ40 ELISA, HEK293 cells expressing human APP695). The test is classed as cell-based. Conditions: HEK293 cells stably expressing human APP695; Aβ40 in supernatant after 18-20 hrs; read-out: BACE1 cell act. Aβ40 IC50. The procedure: Human HEK293 cells which are stably transfected with a vector expressing a cDNA of the human APP wt gene (APP695) were used to assess the potency of the compounds in a cellular assay. The cells were seeded in 96-well microtiter plates in cell culture medium (Iscove, plus 10% (v/v) fetal bovine serum, glutamine, penicillin/streptomycin) to about 80% confluence and the compounds were added at a 10× concentration in 1/10 volume of medium without FCS containing 8% DMSO (final concentration of DMSO was kept at 0.8% v/v). After 18-20 hrs incubation at 37° C. and 5% CO2 in a humidified incubator the culture supernatant was harvested for the determination of Aβ40 concentrations. 96 well ELISA plates (e.g., Nunc MaxiSorb) were coated with monoclonal antibody which specifically recognize the C-terminal end of Aβ40^10. After blocking of non-specific binding sites with e.g. 1% BSA and washing, the culture supernatants were added in suitable dilutions together with a horseradish peroxidase-coupled Aβ detection antibody (e.g., antibody 4G8, Senetek, Maryland Heights, Mo.) and incubated for 5 to 7 hrs. Subsequently the wells of the microtiter plate were washed extensively with Tris-buffered saline containing 0.05% Tween 20 and the assay was developed with tetramethylbenzidine/H2O2 in citric acid buffer. After stopping the reaction with one volume 1 N H2SO4 the reaction was measured in an ELISA reader at 450 nm wavelength. The concentrations of Aβ in the culture supernatants were calculated from a standard curve obtained with known amounts of pure Aβ peptide.
For orientation: ELISA stands for enzyme-linked immunosorbent assay.

For test [1], the target named is T2, recombinant human cathepsin E (Homo sapiens, UniProt P14091).
T2 construct: purchased R&D Systems
T2 sequence (P14091 54-396): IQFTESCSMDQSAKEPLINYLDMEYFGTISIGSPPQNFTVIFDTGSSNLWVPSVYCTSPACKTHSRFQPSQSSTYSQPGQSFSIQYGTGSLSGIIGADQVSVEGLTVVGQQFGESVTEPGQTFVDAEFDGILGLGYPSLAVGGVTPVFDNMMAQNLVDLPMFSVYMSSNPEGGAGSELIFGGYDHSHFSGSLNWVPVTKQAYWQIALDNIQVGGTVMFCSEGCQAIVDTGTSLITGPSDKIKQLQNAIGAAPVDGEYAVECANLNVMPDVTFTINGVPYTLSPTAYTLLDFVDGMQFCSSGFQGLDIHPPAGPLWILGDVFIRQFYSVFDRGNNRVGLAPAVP
Nature of the test: Cathepsin E fluorescent substrate kinetic assay. The test is classed as biochemical. Conditions: pH 4.5. An excerpt: (§1) The MR121 fluorescence assays described below are based on the fact that MR121 forms a non-fluorescent ground state complex with tryptophan. In solution this formation occurs at millimolar concentrations of tryptophan. The mechanism can be used to design a generic biochemical assay for proteases. A substrate peptide is labeled at the N-terminus with tryptophan and at the C-terminus with the fluorophore MR121 (for cathepsin D the 10 amino acid peptide WTSVLMAAPC-MR121 was used; for cathepsin E, MR121-CKLVFFAEDW was used). In absence of protease activity, the substrates remain intact and the MR121 fluorescence is reduced by the high local Trp-concentration. If the substrates are cleaved by the enzymes the MR121 fluorescence is recovered.
(§2) The fluorescent substrate cathepsin D and cathepsin E kinetic assays were performed at room temperature in 384-well microtiter plates (black with clear flat bottom, non binding surface plates from Corning) in a final volume of 51 μl. The test compounds were serially diluted in DMSO (15 concentrations, 1/3 dilution steps) and 1 μl of diluted compounds were mixed for 10 min with 40 μl of cathepsin D (from human liver, Calbiochem) diluted in assay buffer (100 mM sodium acetate, 0.05% BSA, pH 5.5; final concentration: 200 nM) or with 40 μl of recombinant human cathepsin E (R&D Systems) diluted in assay buffer (100 mM sodium acetate, 0.05% BSA, pH 4.5; final concentration: 0.01 nM). After addition of 10 μl of the cathepsin D substrate WTSVLMAAPC-MR121 diluted in cathepsin D assay buffer (final concentration: 300 nM) or […] cathepsin E substrate MR121-CKLVFFAEDW diluted in cathepsin E assay buffer (final concentration: 300 nM), the plates were strongly shaken for 2 minutes. The enzymatic reaction was followed in a plate: vision reader (Perkin Elmer) (excitation wavelength: 630 nm; emission: 695 nm) for at least 30 minutes in a kinetic measurement detecting an increase of MR121 fluorescence during the reaction time. The slope in the linear range of the kinetic was calculated and the IC50 of the test compounds were determined using a four parameter equation for curve fitting.

In test [2] the target is T3, cathepsin D (from human liver) (Homo sapiens, UniProt P07339).
T3 construct: cathepsin D (from human liver, Calbiochem); purchased Calbiochem; host or cells: human liver (tissue-purified)
T3 sequence (P07339 65-162 limits assumed): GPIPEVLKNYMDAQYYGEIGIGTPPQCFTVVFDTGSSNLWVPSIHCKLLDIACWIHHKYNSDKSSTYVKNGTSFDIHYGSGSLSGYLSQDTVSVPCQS
T3 sequence (P07339 169-412 limits assumed): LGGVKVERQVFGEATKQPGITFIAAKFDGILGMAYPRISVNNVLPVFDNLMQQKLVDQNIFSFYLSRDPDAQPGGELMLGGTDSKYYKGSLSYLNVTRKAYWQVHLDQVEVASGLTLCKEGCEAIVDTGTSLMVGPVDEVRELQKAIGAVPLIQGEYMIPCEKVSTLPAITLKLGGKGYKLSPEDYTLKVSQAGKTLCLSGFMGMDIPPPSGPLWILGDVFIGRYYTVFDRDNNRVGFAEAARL
The test is described as follows: Cathepsin D fluorescent substrate kinetic assay. The test is classed as biochemical. The conditions noted are these: pH 5.5.
Source text: as §1, §2

The target in the next test is T4, CYP2D6 (Homo sapiens, UniProt P10635).
T4 construct: 0.2 mg/ml pooled human liver microsomes; from tissue; host or cells: pooled human liver microsomes
T4 sequence (P10635 whole entry): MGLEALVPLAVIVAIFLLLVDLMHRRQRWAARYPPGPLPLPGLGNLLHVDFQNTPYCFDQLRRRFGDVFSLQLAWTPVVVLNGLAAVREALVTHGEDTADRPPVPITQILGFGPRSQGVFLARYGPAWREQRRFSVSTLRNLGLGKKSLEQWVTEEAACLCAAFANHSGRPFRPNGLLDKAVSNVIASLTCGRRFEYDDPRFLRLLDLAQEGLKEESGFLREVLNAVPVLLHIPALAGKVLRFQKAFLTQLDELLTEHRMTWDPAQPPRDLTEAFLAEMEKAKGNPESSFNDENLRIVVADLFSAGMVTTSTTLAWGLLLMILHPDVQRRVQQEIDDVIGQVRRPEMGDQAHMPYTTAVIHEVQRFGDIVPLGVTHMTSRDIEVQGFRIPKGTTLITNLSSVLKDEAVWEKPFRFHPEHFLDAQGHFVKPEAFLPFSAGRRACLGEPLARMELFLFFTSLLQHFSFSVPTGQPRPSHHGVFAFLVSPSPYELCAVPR
The test is described as follows: CYP inhibition assay, human liver microsomes, dextromethorphan. It counts as in vitro ADME. The conditions noted are these: read-out: CYP IC50 2D6. The procedure:
(§3) Inhibition of cytochromes P450 (CYPs) 2C9, 2D6 and 3A4 was assessed using human liver microsomes and CYP-selective substrate metabolism reactions. 50 μl incubations were made up containing (finally) 0.2 mg/ml pooled human liver microsomes, 5 μM substrate (diclofenac for CYP2C9 [4′hydroxylase], dextromethorphan for CYP2D6 [O-demethylase] or midazolam for CYP3A4 [1′hydroxylase]), 0.25 μL DMSO containing test inhibitor and NADPH regenerating system. Test inhibitor concentrations of 50, 16.7, 5.6, 1.9, 0.6 and 0.2 μM were assessed in singlicate. Incubations were prewarmed to 37° C. for 10 minutes before initiation by addition of NADPH regenerating system. Incubations were quenched after 5 minutes (20 minutes for dextromethorphan) by addition of 50 μl cold acetonitrile containing 20 ng/ml 4-OH-diclofenac-13C6, 20 ng/mL dextrorphan-D3 and 20 ng/mL 1-OH-midazolam-D4. Quenched incubates were stored at −20° C. for at least 1 hour before centrifugation (20,000×g, 20 minutes). Supernatants were removed and diluted 1:1 with water prior to analysis using a RapidFire sample injector system and API4000 mass spectrometer. Peak areas for substrate, metabolite and stable-labelled metabolite standard were determined using MS/MS. The peak area ratios between the metabolite generated by the enzymatic reaction and the internal standard were used in subsequent calculations. The percentage of (DMSO) control activity was calculated for each incubate and IC50 values estimated by non-linear regression. Sulfaphenazole, quinidine or ketoconazole were tested in each CYP2C9, CYP2D6 or CYP3A4 inhibition experiment, respectively, to ensure assay sensitivity and reproducibility. (Validated assays for human cytochrome P450 activities^11)
For orientation: Microsomes from liver hold many membrane-bound enzymes, among them those of drug oxidation.

For another test, the target named is T5, CYP2C9 (Homo sapiens, UniProt P11712).
T5 construct: 0.2 mg/ml pooled human liver microsomes; from tissue; host or cells: pooled human liver microsomes
T5 sequence (P11712 whole entry): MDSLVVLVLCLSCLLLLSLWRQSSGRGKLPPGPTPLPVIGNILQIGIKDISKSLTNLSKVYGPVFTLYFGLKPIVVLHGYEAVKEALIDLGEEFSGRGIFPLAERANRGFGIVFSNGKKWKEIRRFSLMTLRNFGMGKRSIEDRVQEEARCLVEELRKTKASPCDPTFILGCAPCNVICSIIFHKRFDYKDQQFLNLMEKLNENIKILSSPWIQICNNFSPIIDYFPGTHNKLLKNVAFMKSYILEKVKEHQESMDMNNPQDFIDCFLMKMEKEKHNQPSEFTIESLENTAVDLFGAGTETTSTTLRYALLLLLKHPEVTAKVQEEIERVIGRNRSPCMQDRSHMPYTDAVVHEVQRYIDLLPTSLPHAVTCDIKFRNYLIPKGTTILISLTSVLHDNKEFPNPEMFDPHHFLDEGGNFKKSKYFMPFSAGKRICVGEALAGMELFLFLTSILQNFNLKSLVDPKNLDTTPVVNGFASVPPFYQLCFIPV
The test is described as follows: CYP inhibition assay, human liver microsomes, diclofenac. It counts as in vitro ADME. The conditions noted are these: read-out: CYP IC50 2C9. The procedure:
as §3

A further test has as its target T6, CYP3A4 (Homo sapiens, UniProt P08684).
T6 construct: 0.2 mg/ml pooled human liver microsomes; from tissue; host or cells: pooled human liver microsomes
Nature of the test: CYP inhibition assay, human liver microsomes, midazolam. It counts as in vitro ADME. Conditions: read-out: CYP IC50 3A4. Here is the method:
as §3

T6 sequence (P08684 whole entry): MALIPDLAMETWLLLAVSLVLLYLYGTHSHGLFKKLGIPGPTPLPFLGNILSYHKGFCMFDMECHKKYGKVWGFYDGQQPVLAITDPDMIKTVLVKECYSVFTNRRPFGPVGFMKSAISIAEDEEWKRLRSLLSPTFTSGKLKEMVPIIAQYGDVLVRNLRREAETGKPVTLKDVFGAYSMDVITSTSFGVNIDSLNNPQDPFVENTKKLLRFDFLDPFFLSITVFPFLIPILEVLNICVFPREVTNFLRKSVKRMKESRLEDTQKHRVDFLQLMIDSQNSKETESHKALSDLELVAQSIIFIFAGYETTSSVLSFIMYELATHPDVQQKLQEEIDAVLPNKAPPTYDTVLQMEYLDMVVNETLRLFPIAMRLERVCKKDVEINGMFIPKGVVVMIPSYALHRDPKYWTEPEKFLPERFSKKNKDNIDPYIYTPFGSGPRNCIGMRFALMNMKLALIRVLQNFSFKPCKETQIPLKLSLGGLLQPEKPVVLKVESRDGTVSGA

Consider `C[C@]1(c2cc(NC(=O)c3ccc(Cl)cn3)ccc2F)N=C(N)O[C@@H]2CCC(F)(F)[C@@H]21` [Example 3], for which the pIC50 (in general, the negative decadic logarithm of the IC50, by convention in mol/L) at BACE1 was 8.72.

Consider `CC(F)(F)c1cnc(C(=O)Nc2ccc(F)c([C@@]3(C)N=C(N)O[C@@H]4CCC(F)(F)[C@@H]43)c2)cn1` [Example 4, 5-(1,1-Difluoro-ethyl)-pyrazine-2-carboxylic acid [3-((4S,4aR,7aR)-2-amino-5,5-difluoro-4-methyl-4,4a,5,6,7,7a-hexahydro-cyclopenta[e][1,3]oxazin-4-yl)-4-fluoro-phenyl]-amide], for which the pIC50 was 8.05 on BACE1, less than 3.70 in test [1] and 3.74 in test [2].

As for `C[C@]1(c2cc(NC(=O)c3cnc(CF)cn3)ccc2F)N=C(N)O[C@@H]2CCC(F)(F)[C@@H]21` [Example 5, 5-Fluoromethyl-pyrazine-2-carboxylic acid [3-((4S,4aR,7aR)-2-amino-5,5-difluoro-4-methyl-4,4a,5,6,7,7a-hexahydro-cyclopenta[e][1,3]oxazin-4-yl)-4-fluoro-phenyl]-amide], the pIC50 on BACE1 is 8.29.

In the case of `C[C@]1(c2cc(NC(=O)c3cnc(C#N)cn3)ccc2F)N=C(N)O[C@@H]2CCC(F)(F)[C@@H]21` [Example 6, 5-Cyano-pyrazine-2-carboxylic acid [3-((4S,4aR,7aR)-2-amino-5,5-difluoro-4-methyl-4,4a,5,6,7,7a-hexahydro-cyclopenta[e][1,3]oxazin-4-yl)-4-fluoro-phenyl]-amide], the pIC50 at BACE1 was 8.26.

For the compound `C[C@]1(c2cc(NC(=O)c3ccc(Cl)cn3)ccc2F)N=C(N)O[C@@H]2CCCC(F)(F)[C@@H]21` [Example 7, 5-Chloro-pyridine-2-carboxylic acid [3-((4S,4aR,8aR)-2-amino-5,5-difluoro-4-methyl-4a,5,6,7,8,8a-hexahydro-4H-benzo[e][1,3]oxazin-4-yl)-4-fluoro-phenyl]-amide], the pIC50 at BACE1 is 8.31.

For the compound `C[C@]1(c2cc(NC(=O)c3ccc(Cl)s3)ccc2F)N=C(N)O[C@@H]2CCCC(F)(F)[C@@H]21` [Example 9, 5-Chloro-thiophene-2-carboxylic acid [3-((4S,4aR,8aR)-2-amino-5,5-difluoro-4-methyl-4a,5,6,7,8,8a-hexahydro-4H-benzo[e][1,3]oxazin-4-yl)-4-fluoro-phenyl]-amide], the pIC50 at BACE1 was 6.46; at CYP2D6 it was 5.00 to 6.00; at CYP2C9 it was 5.00 to 6.00; in test [1], less than 3.70; in test [2], 3.98; on CYP3A4 it was less than 5.00.
